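Dose response: 5 concentrations. Exposure: 48 h. Format: 96-well plates. Endpoint: linear interpolation; highest concentration if not reached. The concentration for full growth arrest is given as TGI.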
Key:
Assay in all cases: inhibition of tumour cell growth, NCI panel, 48 h
HL-60(TB) leukemia = test system: HL-60(TB) leukemia
MALME-3M melanoma = test system: MALME-3M melanoma
SK-MEL-5 melanoma = test system: SK-MEL-5 melanoma
HS 578T breast = test system: HS 578T breast
MOLT-4 leukemia = test system: MOLT-4 leukemia
SF-268 CNS = test system: SF-268 CNS
CCRF-CEM leukemia = test system: CCRF-CEM leukemia
OVCAR-3 ovarian = test system: OVCAR-3 ovarian
HOP-62 NSCLC = test system: HOP-62 NSCLC
NCI-H522 lung = test system: NCI-H522 lung
K-562 leukemia = test system: K-562 leukemia
SK-MEL-28 melanoma = test system: SK-MEL-28 melanoma
SN12C renal = test system: SN12C renal
UACC-62 melanoma = test system: UACC-62 melanoma
MDA-MB-231 breast = test system: MDA-MB-231 breast
MDA-MB-435 = test system: MDA-MB-435
RPMI-8226 leukemia = test system: RPMI-8226 leukemia
HCC-2998 colon = test system: HCC-2998 colon

| Structure (SMILES) | TGI (HL-60(TB) leukemia) [µM] | TGI (MALME-3M melanoma) [µM] | TGI (SK-MEL-5 melanoma) [µM] | TGI (HS 578T breast) [µM] | TGI (MOLT-4 leukemia) [µM] | TGI (SF-268 CNS) [µM] | TGI (CCRF-CEM leukemia) [µM] | TGI (OVCAR-3 ovarian) [µM] | TGI (HOP-62 NSCLC) [µM] | TGI (NCI-H522 lung) [µM] | TGI (K-562 leukemia) [µM] | TGI (SK-MEL-28 melanoma) [µM] | TGI (SN12C renal) [µM] | TGI (UACC-62 melanoma) [µM] | TGI (MDA-MB-231 breast) [µM] | TGI (MDA-MB-435) [µM] | TGI (RPMI-8226 leukemia) [µM] | TGI (HCC-2998 colon) [µM] |
| --- | --- | --- | --- | --- | --- | --- | --- | --- | --- | --- | --- | --- | --- | --- | --- | --- | --- | --- |
| COc1cc(N=CN(C)C)c2ncccc2c1 | > 100 | > 100 | > 100 | > 100 | > 100 | > 100 | > 100 | > 100 | > 100 | > 100 | 47 | > 100 | > 100 | > 100 | > 100 | > 100 | > 100 |  |
| O=C1/C(=C/C=C/c2ccccc2)N=C(c2ccccc2)N1C1Nc2cc3c(cc2S1)NC(N1C(=O)/C(=C/C=C/c2ccccc2)N=C1c1ccccc1)S3 (stereo not drawn) | > 100 |  | > 100 | > 100 | 0.302 | > 100 | > 100 | > 100 | > 100 | 28.8 | > 100 | > 100 |  |  | > 100 | > 100 | 57 | 37.2 |
| Cc1ccc(/C(O)=C/c2nc3ccccc3oc2=O)cc1 |  | > 100 | 46.2 | > 100 | > 100 | > 100 | > 100 | > 100 | > 100 | 90.1 | > 100 |  | > 100 | > 100 | > 100 | 83.4 |  | > 100 |
| O=C(/C=C(\O)c1ccc(Cl)cc1)C(=O)N=Nc1c(O)[nH]c2ccc(Br)cc12 |  | > 100 | > 100 | > 100 | 4.85 | > 100 |  | 95.9 | > 100 | > 100 | 45.8 | > 100 | > 100 | > 100 | > 100 | > 100 | 92.3 | > 100 |
| Cn1c2ccccc2c2c(-c3ccccc3)[n+]3ccccc3nc21 | 66.6 | 41.6 | 33.8 | > 100 | > 100 | 38.8 | 99.8 | 57.7 | 68 | 69.7 | > 100 | 46.7 | 61.6 | 39.3 | 97.5 | 36.6 | 40.8 |  |
| C=C1C(=O)O[C@@H]2[C@H]1C[C@@H](O)[C@H](C)[C@@](O)(C(=O)/C=C/C)[C@H]2OC(=O)C(C)CC (stereo partly drawn) |  | 4.42 | 21.3 | 6.34 | > 36.9 | > 54 | 0.229 | 10.4 | 49.2 | 3.42 | 23.6 | 24.2 | 7.51 | 32.9 | 19.6 | 11.1 | 18.2 | > 67.4 |
| C=CC(Cl)(CBr)CCC(Br)=C(C)C (stereo not drawn) |  | 34.5 | 33.7 | 76.2 | > 100 | 43.3 | > 100 | 55.3 | > 100 | 36.8 | > 100 | 40.7 | 33 | 36 | 37.5 | 46.7 | 54.5 | 44.5 |
| Cc1ccc(S(=O)(=O)N2CC3OC(C)(C)OC3C2CO)cc1 (stereo not drawn) |  | > 100 | > 100 | > 100 | > 100 | > 100 | > 100 | > 100 | > 100 | > 100 | > 100 | > 100 | > 100 |  | > 100 | > 100 | > 100 | > 100 |
| COc1cc2c(cc1OCCCOc1cc(-c3ccc(F)cc3)nc(C)n1)N=C[C@@H]1CCCN1C2=O | 54.1 | 27.3 | 40.9 | 94.3 | 61.1 | 36.4 | 53.9 | 29.4 |  | 37.2 |  | 44.1 | 32.3 | 28.7 | 30 | 28.5 | > 100 |  |
| COC(OC)C1OC(CO)C(n2cc(C)c(=O)[nH]c2=O)C1O (stereo not drawn) |  | > 100 | > 100 | > 100 | > 100 | > 100 | > 100 | > 100 | > 100 | > 100 | > 100 | > 100 | > 100 | > 100 | > 100 | > 100 | > 100 | > 100 |
| O=c1[nH]nc(Cc2ccccc2)n1/N=C/c1c(O)ccc2ccccc12 |  | 50.7 | 48.7 | 81.1 | 79.2 | 90.6 | > 100 | 47.5 |  | 35.5 | 64.4 |  | > 100 | > 100 | 44.2 | > 100 | 82.5 | > 100 |
| C#CCOC(=O)c1ccccc1O | > 100 |  | > 100 | > 100 | > 100 | > 100 | > 100 |  | > 100 | > 100 | > 100 |  | > 100 | > 100 | > 100 | > 100 | > 100 |  |
| COc1ccc(CN2C[C@H]3[C@@H](CC(=O)O[C@H]3C)CC2=O)cc1 |  | > 100 | > 100 | > 100 | > 100 | > 100 | > 100 | > 100 | > 100 | > 100 | > 100 | > 100 |  | > 100 | > 100 | > 100 | > 100 | > 100 |
| Cc1nc(C)c(C(=O)NNC(=O)Cc2ccccc2)cc1C(=O)NNC(=O)Cc1ccccc1 | > 100 |  | > 100 | > 100 | > 100 | > 100 | > 100 | > 100 | > 100 | > 100 | > 100 |  | > 100 | > 100 | > 100 | > 100 | > 100 | > 100 |

Reference: PubChem BioAssay (NCI)
